Compound: CC1=C(C(=O)N2C=CSC2=N1)CCN3CCC(=C(C4=CC=CC=C4)C5=CC=C(C=C5)F)CC3
Assay: relative viability (nuclei count vs DMSO), 5 days (fraction); higher = more cells survive
Procedure, shortened: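 Hoechst staining, done together with fixation and permeabilisation, marked nuclei for 4× imaging and MetaXpress counting. This followed 5 days without medium change after lung cancer cell lines, kept overnight at 37 °C in 1536-well plates, were pinned with five library-drug doses (not always all listed) spaced by √10 on vehicle-anchored plates. Viability is the ratio of treated-well to vehicle-well nuclei, expressed as a median across plates. Plates passed only at control CV below 25% with at least one doubling.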

Cell Line | relative viability (0.08 µM) | relative viability (0.253 µM) | relative viability (0.8 µM) | relative viability (2.53 µM) | relative viability (8 µM)
201T | 1.04 | 1.04 | 0.986 | 1.04 | 1.01
A-427 | 0.983 | 1.08 | 0.945 | 1.04 | 0.939
ABC-1 | 1.04 | 0.858 | 0.871 | 0.888 | 0.592
BEN | 0.886 | 1 | 1 | 1.07 | 0.856
CAL-12T | 1.02 | 1.08 | 0.953 | 1.02 | 0.723
COR-L23 | 0.883 | 1.16 | 1.22 | 1.19 | 0.519
COR-L 105 | 0.89 | 0.928 | 0.787 | 0.852 | 0.845
Calu-6 | 0.906 | 1.02 | 1.04 | 1.03 | 0.602
ChaGo-K-1 | 0.86 | 1.1 | 1.06 | 1.09 | 0.623
EBC-1 | 0.845 | 0.881 | 1.09 | 1.02 | 0.671
EKVX | 0.818 | 0.984 | 1.06 | 1.09 | 0.711
EMC-BAC-2 | 1.01 | 0.798 | 0.908 | 1.12 | 0.796
EPLC-272H | 0.832 | 0.914 | 0.864 | 1.03 | 0.743
H3255 | 0.802 | 1.01 | 1.04 | 1.01 | 0.832
HARA | 1.07 | 1.5 | 1.06 | 0.961 | 0.745
HCC-15 | 0.955 | 1.14 | 1.03 | 0.991 | 0.725
HCC-44 | 1.07 | 1.04 | 0.997 | 1.15 | 0.888
HCC-78 | 0.833 | 1.08 | 0.943 | 0.954 | 0.806
HCC-366 | 0.852 | 1.02 | 1.06 | 1.05 | 0.502
HCC-827 | 1.02 | 1.1 | 1.04 | 1.05 | 0.943
HOP-62 | 1.01 | 1.02 | 0.988 | 0.946 | 0.577
IA-LM | 0.761 | 0.928 | 1.1 | 0.944 | 0.497
LC-2-ad | 1.09 | 0.994 | 0.94 | 1.04 | 0.865
LCLC-97TM1 | 0.921 | 1.07 | 1.02 | 0.874 | 0.91
LCLC-103H | 1.04 | 1.06 | 0.957 | 1.04 | 0.796
LK-2 | 0.955 | 0.902 | 1.07 | 0.998 | 0.658
LOU-NH91 | 1.01 | 0.927 | 0.973 | 1.04 | 0.911

Cell Line | relative viability (0.08 µM) | relative viability (0.253 µM) | relative viability (0.8 µM) | relative viability (2.53 µM) | relative viability (8 µM)
LU99A | 1.13 | 0.99 | 0.88 | 0.972 | 0.89
LXF-289 | 0.952 | 1.1 | 1.03 | 1.03 | 0.893
NCI-H23 | 1.06 | 1.06 | 0.857 | 0.964 | 0.718
NCI-H322M | 0.89 | 0.91 | 0.877 | 1.09 | 1.08
NCI-H358 | 0.802 | 0.921 | 0.978 | 1.2 | 0.639
NCI-H441 | 0.736 | 1.06 | 1.15 | 1.05 | 0.593
NCI-H460 | 0.923 | 0.956 | 1.06 | 1.04 | 0.567
NCI-H520 | 0.981 | 0.974 | 1.03 | 1.05 | 0.657
NCI-H522 | 1.15 | 1.02 | 0.834 | 0.863 | 0.774
NCI-H596 | 1.02 | 0.964 | 0.981 | 0.952 | 0.852
NCI-H647 | 0.996 | 0.894 | 0.877 | 1.09 | 0.462
NCI-H650 | 0.853 | 0.963 | 0.904 | 1.1 | 0.816
NCI-H661 | 0.851 | 1 | 1.01 | 1.02 | 0.764
NCI-H727 | 0.712 | 1.03 | 0.896 | 1.06 | 0.687
NCI-H838 | 0.779 | 0.998 | 0.987 | 1.22 | 0.704
NCI-H1299 | 1.08 | 1 | 1 | 1.01 | 0.714
NCI-H1355 | 0.961 | 1 | 1.04 | 0.981 | 0.757
NCI-H1395 | 0.953 | 0.992 | 0.762 | 0.992 | 0.872
NCI-H1437 | 0.918 | 1.02 | 1.02 | 1.09 | 0.775
NCI-H1563 | 0.903 | 0.949 | 0.882 | 0.986 | 0.918
NCI-H1648 | 0.797 | 0.802 | 0.802 | 0.706 | 0.883
NCI-H1650 | 0.794 | 0.982 | 0.875 | 0.997 | 0.642
NCI-H1651 | 0.823 | 0.968 | 0.976 | 1.01 | 0.72
NCI-H1666 | 0.936 | 0.941 | 0.978 | 1.06 | 0.815
NCI-H1703 | 1.03 | 0.821 | 0.865 | 1.13 | 0.624
NCI-H1734 | 0.975 | 1.08 | 0.976 | 0.955 | 0.62
NCI-H1755 | 0.926 | 0.998 | 1.04 | 1.02 | 0.777

Cell Line | relative viability (0.08 µM) | relative viability (0.253 µM) | relative viability (0.8 µM) | relative viability (2.53 µM) | relative viability (8 µM)
NCI-H1792 | 0.759 | 0.825 | 0.942 | 0.856 | 0.403
NCI-H1793 | 0.761 | 0.891 | 0.912 | 0.831 | 0.711
NCI-H1915 | 1.07 | 1 | 1.01 | 1.01 | 0.732
NCI-H1944 | 0.969 | 0.94 | 0.96 | 0.958 | 0.751
NCI-H1975 | 0.893 | 0.961 | 1 | 0.992 | 0.662
NCI-H1993 | 0.972 | 0.816 | 0.862 | 1.03 | 0.866
NCI-H2009 | 1.06 | 1.07 | 0.999 | 1.05 | 0.871
NCI-H2023 | 0.997 | 0.884 | 0.991 | 1.11 | 0.695
NCI-H2085 | 1 | 1.07 | 1.04 | 0.973 | 0.82
NCI-H2087 | 0.878 | 1.22 | 1.13 | 0.933 | 0.62
NCI-H2126 | 0.966 | 0.991 | 1.05 | 1.04 | 0.914
NCI-H2170 | 0.768 | 0.9 | 1.02 | 1 | 0.697
NCI-H2228 | 1.02 | 0.978 | 1.15 | 1.1 | 0.597
NCI-H2342 | 0.761 | 1.03 | 0.949 | 1.02 | 0.792
NCI-H2347 | 0.964 | 1.07 | 1.04 | 1.05 | 0.775
NCI-H2405 | 0.967 | 0.975 | 0.99 | 1.11 | 0.82
NCI-H3122 | 0.951 | 1.04 | 1.01 | 1.12 | 0.715
PC-3 [JPC-3] | 0.987 | 0.939 | 1.04 | 1.08 | 0.839
PC-14 | 0.939 | 1.02 | 1.06 | 1.1 | 0.624
RERF-LC-KJ | 0.932 | 1.01 | 0.964 | 0.989 | 0.662
SK-LU-1 | 0.845 | 0.955 | 1.18 | 1.15 | 0.648
SK-MES-1 | 1.02 | 1.01 | 1.03 | 1.09 | 0.692
SW 900 | 0.89 | 1.02 | 0.883 | 1.04 | 0.595
SW 1573 | 0.892 | 1.12 | 1.08 | 1.04 | 0.61
UMC-11 | 0.914 | 0.952 | 0.936 | 1.17 | 0.713

Reference: the supplement of paper PMC10307832
